Results: patent US10316021B2, “Heteroarylphenoxy benzamide kappa opioid ligands” (Pfizer Inc., priority 2016, dated 2019)

Legend:
kappa opioid receptor [1] = biological target: T1, kappa opioid receptor (Mus musculus, UniProt P33534); test: In vivo receptor occupancy (displacement of [3H]GR103545 in brain); conditions: subcutaneous dosing; for IC50: displacement of [3H]GR103545, unbound brain concentration, read-out: Mouse KOR IVRO unbound brain IC50
T1 construct: from tissue; host or cells: brain of adult male C57BL/6J mice (in vivo)
Description: (§1) Adult male C576BL/J6 mice from Jackson Labs (Bar Harbor, Me.) were group housed on individually-vented cage racks, in environmentally-controlled animal quarters (light/dark-6:00 am/6:[…]) for a minimum of 7 days prior to use. For progressive ratio studies, mice were food-restricted to 80-85% of their body weight before testing began. All animal procedures were approved by the Pfizer Inc. IACUC and conducted in accordance with the NIH Guide for the Care and Use of Laboratory Animals.
In Vivo Receptor Occupancy
In vivo receptor occupancy was assessed in adult male C57BL6/J mice. Mice were administered increasing doses (0.001-32 mg/kg s.c.) 30 min prior to administration of the kappa opioid receptor ligand, [^3H]GR103545 (100 μCi/kg, intraorbital). Animals were euthanized 10 min later using cervical dislocation and the brains dissected. One hemisphere was stored at −40° C. for subsequent measurement of compound concentration, the other was homogenized in chilled Tris-HCl buffer (50 mM, pH 7.4; 1:10 w/v) for twenty seconds. Samples of brain homogenate were filtered through 0.3 to 0.5% PEI-soaked GF/B filters, and the filters washed twice with chilled buffer before radioactivity was counted overnight using a scintillation counter. Binding of the ligand in cerebellum was used to determine non-specific binding.

kappa opioid receptor [2] = biological target: T1, kappa opioid receptor; test: Progressive ratio responding (reversal of spiradoline-induced deficit in motivation); type: in vivo; conditions: co-administered with spiradoline, receptor occupancy measured in a separate group of animals
Description: as §1
Progressive Ratio Responding:
Motivation and food-reinforced operant behavior were assessed in the progressive ratio assay. Adult male C576BL/J6 mice were food-restricted to 80-85% of their body weight over a period of one week and kept in their home cages. Mice were trained to nose-poke for a food reward. […] Mice were assessed in a 60 minute session, where the number of rewards obtained was used as a surrogate of the level of motivation. Once mice had reached a stable level of responding, mice were dosed with the kappa opioid receptor agonist, spiradoline (3.2 mg/kg s.c.), to induce a deficit in motivation. Mice were co-administered increasing doses of the kappa opioid receptor antagonists (0.0032-3.2 mg/kg s.c.) to assess their ability to antagonize the spiradoline-induced deficit.

T1 sequence (P33534 whole entry): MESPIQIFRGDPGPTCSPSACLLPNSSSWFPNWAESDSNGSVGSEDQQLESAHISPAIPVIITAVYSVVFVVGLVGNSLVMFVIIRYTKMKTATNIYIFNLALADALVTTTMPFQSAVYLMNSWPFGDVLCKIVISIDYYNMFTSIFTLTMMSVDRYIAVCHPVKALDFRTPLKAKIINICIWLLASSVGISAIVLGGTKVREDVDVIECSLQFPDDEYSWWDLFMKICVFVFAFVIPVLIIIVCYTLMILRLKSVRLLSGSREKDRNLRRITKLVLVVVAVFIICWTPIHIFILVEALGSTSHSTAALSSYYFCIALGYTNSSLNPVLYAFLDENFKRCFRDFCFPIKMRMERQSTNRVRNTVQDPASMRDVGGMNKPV

SMILES	displacement of KOR agonist radioligand binding in the brain, in words (kappa opioid receptor [1])	IC50 (kappa opioid receptor [1])	% KOR IVRO to achieve 50% PR reversal (kappa opioid receptor [2])
COc1nn(C)cc1[C@@H]1CCCN1Cc1ccc(Oc2ccc(C(N)=O)cc2)cc1 (single isomer, unassigned) [Example 12]	displaced KOR agonist radioligand ([^3H]GR103545) binding in the brain in an exposure-dependent manner	2.5 nM	30%
COc1nn(C)cc1C1CCCN1Cc1ccc(Oc2ccc(C(N)=O)cc2F)cc1 (single isomer, unassigned; (-)) [Example 8, (−)-3-Fluoro-4-(4-{[2-(3-methoxy-1-methyl-1H-pyrazol-4-yl)pyrrolidin-1-yl]methyl}phenoxy)benzamide]	displaced KOR agonist radioligand ([^3H]GR103545) binding in the brain in an exposure-dependent manner	0.69 nM	25%
Cc1cc(C)cc([C@@H]2CCCN2Cc2ccc(Oc3ccc(C(N)=O)cc3F)cc2)c1 [Comparator E, reference compound]	displaced KOR agonist radioligand ([^3H]GR103545) binding in the brain in an exposure-dependent manner	0.015 nM	70%
Cc1nn(C)cc1[C@@H]1CCCN1Cc1ccc(Oc2ccc(C(N)=O)cc2)cc1 [Example 11, 4-(4-{[(2S)-2-(1,3-Dimethyl-1H-pyrazol-4-yl)pyrrolidin-1-yl]methyl}phenoxy)benzamide]	displaced KOR agonist radioligand ([^3H]GR103545) binding in the brain in an exposure-dependent manner	2.5 nM	30%
